Where a SMILES comes first, the peptide text is derived from it. Where no end group is shown, it is not given here. [ ]: non-standard residue; d: D form. The star is where a group is joined. Thr(SO3H) = C[C@@H](OS(=O)(=O)O)[C@H](N)C(=O)O; sY = N[C@@H](Cc1ccc(OS(=O)(=O)O)cc1)C(=O)O; NMeF = CN[C@@H](Cc1ccccc1)C(=O)O; Nle = CCCC[C@H](N)C(=O)O; For = O=C*
Key:
[1] = target: T1, receptors in bovine striatum (3H-CCK-8-(SO3 H) binding, central receptor) (Bos taurus, UniProt P79266); experiment: In vitro receptor binding assay, bovine striatum homogenate, 3H-CCK-8-(SO3H) radioligand; settings: 0.15 nM radioligand, 30 min, 25° C.; read-out: Bovine Striatum IC50 (inhibition of specific 3H-CCK-8-(SO3H) binding)
T1 construct: receptors in homogenized preparations of rat pancreatic cells and bovine striata; from tissue; host or cells: bovine striatum homogenate (48,000 x g pellet)
T1 sequence (P79266 1-454): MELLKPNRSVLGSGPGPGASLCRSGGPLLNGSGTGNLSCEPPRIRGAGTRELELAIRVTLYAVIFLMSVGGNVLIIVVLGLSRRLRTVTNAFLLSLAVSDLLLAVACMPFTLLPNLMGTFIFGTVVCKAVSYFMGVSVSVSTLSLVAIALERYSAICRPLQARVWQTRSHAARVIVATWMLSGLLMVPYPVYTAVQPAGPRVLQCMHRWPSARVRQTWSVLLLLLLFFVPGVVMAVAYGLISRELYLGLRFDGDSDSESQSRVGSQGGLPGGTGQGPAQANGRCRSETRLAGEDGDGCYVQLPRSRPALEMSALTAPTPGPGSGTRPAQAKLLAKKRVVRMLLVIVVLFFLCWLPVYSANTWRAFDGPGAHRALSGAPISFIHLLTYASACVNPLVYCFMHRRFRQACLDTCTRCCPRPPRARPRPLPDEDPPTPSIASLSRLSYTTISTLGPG
Method: Frozen bovine striatum (approx. 5 g) and fresh rat pancreas (approx. 5 g) cleaned of fat and extraneous tissue were homogenized in HEPES buffer #1 (10 mM HEPES+130 mM NaCl+5 mM MgCl2. pH 7.4) using 35 parts buffer per 1 part tissue on a wet weight/volume basis (approx. 175 ml). The tissue was homogenized 2 x for approx. 15 sec. at 0° C. using a Polytron homogenizer at a setting of 6. The tissue was isolated by centrifugation at 48,000 x g for 10 min. at 0° C. The resulting tissue pellet was resuspended in HEPES buffer #2 (10 mM HEPES+130 mM NaCl+5 mM MgCl2 +1 mg/L phenylmethanesulfonyl fluoride (PMSF)+200 mg/L Bacitracin): 1 part striatal tissue (original wet weight) per 80 parts buffer and 1 part pancreas tissue (original wet weight) per 70 parts buffer.
Incubation was initiated by combining various concentrations of native CCK-8 or peptides of formula I, II and III with ^3 H-CCK-8-(SO3 H) (final conc.=0.15 nM) and tissue homogenate (striatum 0.26 mg protein in 2 ml final volume; pancreas 0.165 mg protein in 1 ml final volume). Samples were incubated for 30 min. at 25° C. and the incubation terminated by pouring the mixture onto a pre-wet Whatman GF/B filter on a Sandbeck Vacuum Filtration Manifold. The incubation tubes were washed with 2×3 ml of ice-cold HEPES Buffer #2 and the wash filtered through the GF/B filter. The filter was air dried for 10 min. and then placed in a scintillation vial with 12 ml of Beckman HP/b Ready-Solv scintillation cocktail. The vials were shaken for 2 hours and then counted using a Beckman Model 7800 liquid scintillation spectrometer. Non-specific binding was determined in the presence of 1 micromole native CCK-8 and subtracted from all samples to determine specific binding. The concentration of ^3 peptide necessary to inhibit 50% of total specific H-CCK-8-(SO3 H) binding (IC50 value) was determined by log-probit analysis.

[2] = target: T2, receptors in rat pancreas (3H-CCK-8-(SO3 H) binding) (Rattus norvegicus, UniProt P30551); experiment: In vitro receptor binding assay, rat pancreas homogenate, 3H-CCK-8-(SO3H) radioligand; settings: 0.15 nM radioligand, 30 min, 25° C.; read-out: Rat Pancreas IC50 (inhibition of specific 3H-CCK-8-(SO3H) binding)
T2 construct: receptors in homogenized preparations of rat pancreatic cells and bovine striata; from tissue; host or cells: rat pancreas homogenate (48,000 x g pellet)
T2 sequence (P30551 1-444): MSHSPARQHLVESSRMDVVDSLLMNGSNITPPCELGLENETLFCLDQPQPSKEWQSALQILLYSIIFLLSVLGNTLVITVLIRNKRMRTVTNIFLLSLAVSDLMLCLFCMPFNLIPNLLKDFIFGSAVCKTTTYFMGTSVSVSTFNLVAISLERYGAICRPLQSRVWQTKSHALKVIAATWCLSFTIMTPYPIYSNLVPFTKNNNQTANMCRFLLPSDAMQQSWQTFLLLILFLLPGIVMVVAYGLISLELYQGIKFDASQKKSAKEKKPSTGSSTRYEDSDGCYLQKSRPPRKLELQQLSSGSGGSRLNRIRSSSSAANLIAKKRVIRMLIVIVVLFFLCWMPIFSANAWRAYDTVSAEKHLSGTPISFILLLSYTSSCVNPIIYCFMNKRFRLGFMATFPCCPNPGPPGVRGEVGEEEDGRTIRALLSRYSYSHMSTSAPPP
Method: This strategy was utilized to minimize central nervous system side effects by identifying peptides with peripheral receptor selectivity. […] The tissue was homogenized 2 x for approx. 15 sec. at 0° C. using a Polytron homogenizer at a setting of 6. The tissue was isolated by centrifugation at 48,000 x g for 10 min. at 0° C. […] Samples were incubated for 30 min. at 25° C. and the incubation terminated by pouring the mixture onto a pre-wet Whatman GF/B filter on a Sandbeck Vacuum Filtration Manifold. The incubation tubes were washed with 2×3 ml of ice-cold HEPES Buffer #2 and the wash filtered through the GF/B filter. The filter was air dried for 10 min. and then placed in a scintillation vial with 12 ml of Beckman HP/b Ready-Solv scintillation cocktail. The vials were shaken for 2 hours and then counted using a Beckman Model 7800 liquid scintillation spectrometer.

[3] = system: Male Sprague-Dawley (CD) rats, food intake; experiment: Two-meal feeding assay, intraperitoneal administration; assay type: in vivo, rat; settings: 32 microgm/Kg i.p., mean ± SEM; for Food Intake 1st Meal: 15 min before first meal
Method: Male Sprague-Dawley (CD) rats weighing 180-200 grams (Charles River Breeding Laboratories) were acclimated to a 12 h light/dark cycle (6 a.m. to 6 p.m.) in a room kept at 22° C. They were subsequently fasted for two days, weighed, placed in individual cages, and a four-day period of meal training was begun. During this time the rats were given ground laboratory chow (Purina Lab Chow) in jars for one hour from 9:00 a.m. until 10:00 a.m., the jars were removed from 10:00 a.m. to 12:00 p.m., and placed back in the cages from 12:00 until 1:00 p.m. Under this `1-2-1` meal feeding regime most rats learn to eat approximately as much Per day during the two hours they have access to food as rats which have food ad libitum over the entire 24-hour day. On the fourth day, the rats were weighed again, and any which lost more than five grams body weight were excluded from the test. The animals were then distributed into experimental (n=5 to 6) and control groups (n=6-12). but not matched for body weight.
Peptides of the invention were suspended either in saline. if soluble, or in 1% gum arabic, if insoluble, at concentrations of 0 to 320 μg/ml/kg body weight and were administered intraperitonerally 15 min before the first meal on day 5 of meal feeding. The rats were then given their meals as they had been during the previous four days, and the food cups were weighed both before and after each meal to determine food consumption. Food intake was expressed as a mean and standard error of the mean in grams consumed or as a percent of control values for the various groups. The treated groups were compared to the control groups by t-test analysis. […]

[4] = system: rat and monkey, satiety; settings: cited from earlier work
[5] = target: T3, Rat kidney metalloendopeptidase (Rattus norvegicus, UniProt P07861); experiment: Degradation by rat kidney metalloendopeptidase (HPLC); assay type: in vitro ADME; settings: for % Degradation by Height: 37° C., pH 7.6
T3 construct: from tissue; host or cells: rat kidney
T3 sequence (P07861 1-750): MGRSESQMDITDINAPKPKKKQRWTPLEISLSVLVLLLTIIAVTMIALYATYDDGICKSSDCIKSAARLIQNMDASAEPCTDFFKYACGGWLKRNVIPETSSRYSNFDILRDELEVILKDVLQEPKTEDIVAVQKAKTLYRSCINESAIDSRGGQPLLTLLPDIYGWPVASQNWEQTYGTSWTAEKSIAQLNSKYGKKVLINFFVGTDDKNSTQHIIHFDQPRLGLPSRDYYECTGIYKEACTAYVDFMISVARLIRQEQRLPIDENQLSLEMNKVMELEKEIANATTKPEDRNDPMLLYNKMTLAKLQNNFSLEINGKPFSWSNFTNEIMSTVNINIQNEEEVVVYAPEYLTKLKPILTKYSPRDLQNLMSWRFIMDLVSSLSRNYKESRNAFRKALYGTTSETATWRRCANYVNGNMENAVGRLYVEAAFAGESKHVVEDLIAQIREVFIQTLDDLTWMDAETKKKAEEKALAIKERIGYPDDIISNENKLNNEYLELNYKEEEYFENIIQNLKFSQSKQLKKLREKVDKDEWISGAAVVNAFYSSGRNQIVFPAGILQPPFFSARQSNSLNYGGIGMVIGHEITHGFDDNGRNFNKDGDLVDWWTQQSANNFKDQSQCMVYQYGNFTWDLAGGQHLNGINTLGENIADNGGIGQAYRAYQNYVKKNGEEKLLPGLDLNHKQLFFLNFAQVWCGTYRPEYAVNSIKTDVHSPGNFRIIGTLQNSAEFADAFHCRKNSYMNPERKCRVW
Method: Rat kidney metalloendopeptidase (0.01 μg) and 5 nmol of peptide were incubated in 2 μmol tris-HCl buffer (pH 7.6) and at 37° C. for varying periods of time. The degradation of the peptide was monitored by analytical HPLC on a 5 micron Adsorbosphere-ODS column with a 0-50% CH3 CN gradient in 0.1N potassium phosphate, pH 3.0, with UV detection at 210 nm. Rates are based on presumed production of Asp-Tyr(SO3 H)-Met-Gly for CCK-8 and the presumed production of Ac-Tyr(SO3 H)-Met-Gly for Example 2 and 3.

Row | IC50 [1] | IC50 [2] | % Degradation by Height ([5]; incubation 0 min) | % Degradation by Height ([5]; incubation 60 min) | % Degradation by Height ([5]; incubation 120 min) | No. of Peaks (degradation products) ([5]; incubation 240 min) | % Degradation by Height ([5]; incubation 240 min) | Compound | Food Intake 1st Meal [3] | Food Intake 2nd Meal [3] | Satiety after peripheral administration [4]
1 | 0.1 µM | 0.044 µM | – | – | – | – | – | CCCC[C@H](NC(=O)[C@H](Cc1ccc(OS(=O)(=O)O)cc1)NC(C)=O)C(=O)N[C@H](C)C(=O)N[C@@H](Cc1c[nH]c2ccccc12)C(=O)N[C@@H](CCSC)C(=O)N[C@H](C(=O)N(C)[C@@H](Cc1ccccc1)C(N)=O)[C@@H](C)OS(=O)(=O)O [Example 4, Ac-Tyr(SO3 H)-Nle-(D)Ala-Trp-Met-Thr(SO3 H)-n-Methyl-Phe-NH2] (Ac-[sY][Nle][dA]WM[Thr(SO3H)][NMeF]-NH2) | 5 ± 5 % of Control | 79 ± 13 % of Control | –
2 | – | – | – | – | – | – | – | Cholecystokinin (KAPSGRVSMIKNLQSLDPSHRISDRDYMGWMDF; ends and bridges not checked; UniProt P01356 70-102, looked up) [CCK, polypeptide hormone first isolated as a 33-amino acid peptide from the porcine gastrointestinal tract] | – | – | produce satiety in the rat and the monkey
3 | 4.1 µM | 4.2 µM | – | – | – | – | – | CSCC[C@H](NC(=O)[C@H](Cc1ccc(OS(=O)(=O)O)cc1)NC(C)=O)C(=O)N[C@@H](C)C(=O)N[C@@H](Cc1cn(C=O)c2ccccc12)C(=O)N[C@@H](CCSC)C(=O)N[C@H](C(=O)N(C)[C@@H](Cc1ccccc1)C(N)=O)[C@@H](C)OS(=O)(=O)O [Example 5, Ac-Tyr(SO3 H)-Met-Ala-Trp(For)-Met-Thr(SO3 H)-N-methyl-Phe-NH2] (Ac-[sY]MAW(For)M[Thr(SO3H)][NMeF]-NH2) | 70 ± 2 % of Control | 133 ± 9 % of Control | –
4 | 1.75 µM | 0.1 µM | – | – | – | – | – | CSCC[C@H](NC(=O)[C@H](Cc1ccc(OS(=O)(=O)O)cc1)NC(C)=O)C(=O)N[C@@H](C)C(=O)N[C@@H](Cc1c[nH]c2ccccc12)C(=O)N[C@@H](CCSC)C(=O)N[C@H](C(=O)N(C)[C@@H](Cc1ccccc1)C(N)=O)[C@@H](C)OS(=O)(=O)O [Example 6, Ac-Tyr(SO3 H)-Met-Ala-Trp-Met-Thr(SO3 H)-N-methyl-Phe-NH2] (Ac-[sY]MAWM[Thr(SO3H)][NMeF]-NH2) | 14 ± 6 % of Control | 114 ± 9 % of Control | –
5 | 1 µM | 0.0094 µM | – | – | – | – | – | CSCC[C@H](NC(=O)[C@H](Cc1ccc(OS(=O)(=O)O)cc1)NC(C)=O)C(=O)NCC(=O)N[C@@H](Cc1cn(C=O)c2ccccc12)C(=O)N[C@@H](CCSC)C(=O)N[C@H](C(=O)N(C)[C@@H](Cc1ccccc1)C(N)=O)[C@@H](C)OS(=O)(=O)O [Example 1, Ac-Tyr(SO3 H)-Met-Gly-Trp(For)-Met-Thr(SO3 H)-N-methyl-Phe-NH2] (Ac-[sY]MGW(For)M[Thr(SO3H)][NMeF]-NH2) | 23 ± 13 % of Control | 55 ± 10 % of Control | –
6 | 0.1 µM | 0.1 µM | 0% | 0% | 0% | 0 | 0% | CCCC[C@H](NC(=O)[C@H](Cc1ccc(OS(=O)(=O)O)cc1)NC(C)=O)C(=O)N[C@H](C)C(=O)N[C@@H](Cc1cn(C=O)c2ccccc12)C(=O)N[C@@H](CCSC)C(=O)N[C@H](C(=O)N(C)[C@@H](Cc1ccccc1)C(N)=O)[C@@H](C)OS(=O)(=O)O [Example 3, Ac-Tyr-(SO3 H)-Nle-(D)Ala-Trp(For)-Met-Thr(SO3 H)-N-methyl-Phe-NH2] (Ac-[sY][Nle][dA]W(For)M[Thr(SO3H)][NMeF]-NH2) | 34 ± 6 % of Control | 164 ± 16 % of Control | –

From US5013722A, “Cholecystokinin analogs for controlling appetite” (Hoffmann-LaRoche Inc., priority 1989, dated 1991)
